The record followed here is ChEMBL document CHEMBL1201862, “PubChem BioAssay data set” (2004).

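Where inhibition never reached the appropriate level, the endpoint shown equals the highest concentration tested. Otherwise, values were interpolated linearly from a five-concentration, 48-hour dose response in 96-well plates. GI50 = concentration required for 50% inhibition of growth.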 Active and inactive are the calls of the source. Cut-off read from the data, not from the text of the source: active = GI50 up to about 1.1 µM and inactive = higher. Where only a bound is given, the exact number is not on record here.

Test systems include CAKI-1; OVCAR-4; BT-549; TK-10; SK-OV-3; NCI-H226; CCRF-CEM; NCI-H460; LOX IMVI; IGROV-1; NCI/ADR-RES; M14; MOLT-4; EKVX; T47D; RPMI-8226; KM12; SNB-75; OVCAR-5; M19-MEL.
Holding throughout (assay): NCI-60 cell line screen, 48 h

Take `CC(N/N=C(\S)N1CCCC1)c1cccnn1` (stereo not given): the GI50 with CAKI-1 was 0.713 µM (active); in the assay on OVCAR-4, 0.695 µM (active); in the assay on BT-549, 0.433 µM (active); in the assay with TK-10, 0.54 µM (active); in the assay on SK-OV-3, 0.337 µM (active); in the assay on NCI-H226, 1.13 µM (inactive). The GI50 in the assay on CCRF-CEM was 0.274 µM (active); with NCI-H460 it was 0.306 µM (active); in the assay with LOX IMVI it was 0.444 µM (active); in the assay on IGROV-1, 0.43 µM (active); with NCI/ADR-RES, 0.48 µM (active); with M14 it was 0.378 µM (active). Also, the GI50 is 0.351 µM (active) in the assay on MOLT-4; 0.294 µM (active) in the assay on EKVX; 0.553 µM (active) in the assay on T47D; 0.434 µM (active) in the assay with RPMI-8226; 0.719 µM (active) with KM12; 7.52 µM (inactive) with SNB-75. Further, the GI50 with OVCAR-5 is 0.318 µM (active).
`O=C1c2ccccc2C(=O)c2c1ccc1nc3c(nc21)-c1c2ccccc2cc2cccc-3c12`: the GI50 is 23.4 µM (inactive) in the assay with CAKI-1; > 70.1 µM (inactive) in the assay on OVCAR-4; 80.2 µM (inactive) with BT-549; 52.4 µM (inactive) in the assay on TK-10; 41.1 µM (inactive) with SK-OV-3; > 68.9 µM (inactive) in the assay on NCI-H226. The GI50 is 5.33 µM (inactive) in the assay with CCRF-CEM; 26.2 µM (inactive) with NCI-H460; 19.9 µM (inactive) in the assay on LOX IMVI; 9.16 µM (inactive) with IGROV-1; 36.3 µM (inactive) with NCI/ADR-RES; 32.4 µM (inactive) in the assay with M14. Also, the GI50 was 18.6 µM (inactive) in the assay on MOLT-4; 18.3 µM (inactive) in the assay on EKVX; 33.6 µM (inactive) with T47D; 39.5 µM (inactive) with RPMI-8226; 8.36 µM (inactive) in the assay on KM12; 19.5 µM (inactive) with SNB-75. Moreover, the GI50 with OVCAR-5 was > 100 µM (inactive).
With `CC(C)=CCc1c(O)cc2oc(-c3ccc(O)cc3O)cc(=O)c2c1O`, the GI50 in the assay on CAKI-1 is 28.5 µM (inactive); with OVCAR-4, 20.2 µM (inactive); with BT-549, 29.8 µM (inactive); in the assay on TK-10, 22 µM (inactive); with SK-OV-3 it was 36 µM (inactive); in the assay with NCI-H226, 57 µM (inactive). The GI50 in the assay with CCRF-CEM was 8.11 µM (inactive); with NCI-H460, 36.6 µM (inactive); in the assay with LOX IMVI, 9.53 µM (inactive); in the assay with IGROV-1, 33.5 µM (inactive); with NCI/ADR-RES it was 33.3 µM (inactive); in the assay with M14, 27.9 µM (inactive). Besides, the GI50 in the assay with MOLT-4 was 1.95 µM (inactive); in the assay with EKVX, 42.3 µM (inactive); with T47D, 19 µM (inactive); in the assay on RPMI-8226 it was 17.4 µM (inactive); in the assay with KM12, 19.5 µM (inactive); in the assay with SNB-75 it was 23.8 µM (inactive). In addition, the GI50 in the assay with OVCAR-5 is 31 µM (inactive).
`Nc1ncnc2c1ncn2[C@@H]1O[C@H](COP(=O)(O)OP(=O)(O)OC[C@H]2O[C@@H](OCCCO)[C@H](O)[C@@H]2O)[C@@H](O)[C@H]1O`: the GI50 was 85.9 µM (inactive) with CAKI-1; > 100 µM (inactive) in the assay with OVCAR-4; > 100 µM (inactive) in the assay on BT-549; > 100 µM (inactive) in the assay with TK-10; > 100 µM (inactive) with SK-OV-3; > 100 µM (inactive) in the assay on NCI-H226. Besides, the GI50 in the assay with CCRF-CEM is > 100 µM (inactive); in the assay with NCI-H460, 34.6 µM (inactive); in the assay on LOX IMVI, 56.8 µM (inactive); with IGROV-1, > 100 µM (inactive); with NCI/ADR-RES it was > 100 µM (inactive); with M14, > 100 µM (inactive). The GI50 in the assay with MOLT-4 is > 100 µM (inactive); in the assay with EKVX it was > 100 µM (inactive); with T47D, > 100 µM (inactive); in the assay on RPMI-8226, > 100 µM (inactive); in the assay with KM12, 63.5 µM (inactive); with SNB-75, > 100 µM (inactive). Further, the GI50 with OVCAR-5 was > 100 µM (inactive).
Regarding `CC1=Nn2c(nc3sc4c(c3c2=O)CCCC4)SC1`, the GI50 is > 100 µM (inactive) in the assay on CAKI-1; 71.3 µM (inactive) in the assay with OVCAR-4; 31.5 µM (inactive) with BT-549; 53.7 µM (inactive) with TK-10; > 100 µM (inactive) in the assay with SK-OV-3; > 100 µM (inactive) with NCI-H226. Also, the GI50 is 35.3 µM (inactive) with CCRF-CEM; 48.2 µM (inactive) with NCI-H460; 21.4 µM (inactive) in the assay with LOX IMVI; > 76.4 µM (inactive) with IGROV-1; 98.6 µM (inactive) in the assay with NCI/ADR-RES; > 100 µM (inactive) in the assay with M14. Further, the GI50 was 44.2 µM (inactive) in the assay on MOLT-4; > 69.5 µM (inactive) in the assay on EKVX; 58.5 µM (inactive) in the assay on T47D; 69.2 µM (inactive) with RPMI-8226; > 83.9 µM (inactive) in the assay on KM12; 64.9 µM (inactive) with SNB-75. In addition, the GI50 in the assay on OVCAR-5 was > 100 µM (inactive).
As for `CCC/C(Cl)=N\OC(=O)Nc1ccc(Br)cc1`, the GI50 in the assay on CAKI-1 is 4.36 µM (inactive); in the assay on OVCAR-4, 21.5 µM (inactive); with BT-549 it was 17.7 µM (inactive); in the assay with TK-10 it was 14.2 µM (inactive); with SK-OV-3, 16.8 µM (inactive); with NCI-H226 it was 21.6 µM (inactive). The GI50 in the assay with CCRF-CEM is 1.78 µM (inactive); in the assay with NCI-H460 it was 16.5 µM (inactive); in the assay on LOX IMVI it was 3.89 µM (inactive); in the assay on IGROV-1 it was 12.8 µM (inactive); in the assay on NCI/ADR-RES, 8.99 µM (inactive); with M14, 12 µM (inactive). For the same compound, the GI50 is 2.55 µM (inactive) in the assay with MOLT-4; 14.6 µM (inactive) in the assay on EKVX; 7.24 µM (inactive) in the assay on T47D; 2.96 µM (inactive) with RPMI-8226; 10.8 µM (inactive) in the assay with KM12; 13.5 µM (inactive) in the assay with SNB-75. The GI50 in the assay with OVCAR-5 is 13.9 µM (inactive).
`O=C(ON=C1c2ccccc2C(Br)C(Br)c2ccccc21)c1ccccc1` (stereo not given): the GI50 in the assay with CAKI-1 was 9.48 µM (inactive); with OVCAR-4, 13.2 µM (inactive); in the assay on BT-549 it was 19.6 µM (inactive); with TK-10 it was 15.8 µM (inactive); in the assay on SK-OV-3 it was 18.6 µM (inactive); in the assay on NCI-H226 it was 18 µM (inactive). The GI50 with CCRF-CEM is 0.673 µM (active); with NCI-H460, 13.4 µM (inactive); with LOX IMVI, 4.28 µM (inactive); in the assay on IGROV-1 it was 2.44 µM (inactive); with NCI/ADR-RES it was 22.8 µM (inactive); in the assay with M14, 17.3 µM (inactive). In addition, the GI50 with MOLT-4 was 2.04 µM (inactive); with EKVX, 23.1 µM (inactive); in the assay with T47D it was 9.57 µM (inactive); in the assay on RPMI-8226 it was 4.57 µM (inactive); in the assay on KM12, 17.9 µM (inactive); with SNB-75 it was 21.6 µM (inactive). Further, the GI50 in the assay on OVCAR-5 was 18.8 µM (inactive).
On to `O=C(Cc1ccc(OCc2cccc(Cl)c2)cc1)NO`, for which the GI50 with CAKI-1 was 19.9 µM (inactive); in the assay with OVCAR-4, 15.3 µM (inactive); with BT-549, 26.2 µM (inactive); with TK-10, 34.8 µM (inactive); with SK-OV-3, 29.8 µM (inactive); with NCI-H226 it was 19.4 µM (inactive). Besides, the GI50 is 6.76 µM (inactive) in the assay with CCRF-CEM; 23.1 µM (inactive) in the assay on NCI-H460; 11.7 µM (inactive) in the assay with LOX IMVI; 17.5 µM (inactive) with IGROV-1; 12.2 µM (inactive) in the assay with NCI/ADR-RES; 29.4 µM (inactive) in the assay with M14. The GI50 in the assay on MOLT-4 was 2.98 µM (inactive); with EKVX, 25.3 µM (inactive); in the assay with T47D it was 5.74 µM (inactive); in the assay with RPMI-8226 it was 3.77 µM (inactive); in the assay with KM12, 27.6 µM (inactive); in the assay on SNB-75 it was 25.8 µM (inactive). For the same compound, the GI50 in the assay with OVCAR-5 is 30.3 µM (inactive).
As for `O=C(c1ccccc1)N(C(=O)c1ccccc1)c1nc(SCc2ccccc2)ns1`, the GI50 in the assay on CAKI-1 was 38.2 µM (inactive); in the assay on OVCAR-4, 39.9 µM (inactive); in the assay on BT-549, 28.8 µM (inactive); with TK-10, 25.9 µM (inactive); in the assay on SK-OV-3, 43.2 µM (inactive); with NCI-H226, 28.6 µM (inactive). The GI50 in the assay with CCRF-CEM was 25.6 µM (inactive); with NCI-H460 it was 21.1 µM (inactive); with LOX IMVI, 28.6 µM (inactive); in the assay on IGROV-1 it was 36.9 µM (inactive); with NCI/ADR-RES it was 28.3 µM (inactive); in the assay on M14, 34.4 µM (inactive). In addition, the GI50 is 25.4 µM (inactive) with MOLT-4; 25.7 µM (inactive) with EKVX; 25 µM (inactive) in the assay on T47D; 19.6 µM (inactive) in the assay on RPMI-8226; 34 µM (inactive) in the assay on KM12; 22.6 µM (inactive) with SNB-75. For the same compound, the GI50 with OVCAR-5 is 33.7 µM (inactive).
For `O=C(CCc1nnc2s/c(=C\c3ccccc3[N+](=O)[O-])c(=O)n12)Nc1cc(Cl)c(Cl)cc1Cl`, the GI50 in the assay with OVCAR-4 is 14.7 µM (inactive); in the assay with TK-10, 37.1 µM (inactive); with SK-OV-3, 56.6 µM (inactive); in the assay with NCI-H226, 16.4 µM (inactive); in the assay on CCRF-CEM, 24.4 µM (inactive); in the assay on NCI-H460 it was 27.4 µM (inactive). For the same compound, the GI50 with LOX IMVI is 20.8 µM (inactive); with IGROV-1, 69.5 µM (inactive); in the assay on M14 it was 32.5 µM (inactive); with MOLT-4, 21 µM (inactive); in the assay with EKVX, 37.9 µM (inactive); with M19-MEL, 43.2 µM (inactive). In addition, the GI50 in the assay on KM12 is 19.5 µM (inactive); in the assay on SNB-75, 20.5 µM (inactive); in the assay on OVCAR-5, 34.1 µM (inactive).
On to `O=C1N/C(=N/N=C/c2ccccc2)N/C1=C\c1cccs1`, for which the GI50 with CAKI-1 is 16.7 µM (inactive); with OVCAR-4, 22.3 µM (inactive); in the assay with BT-549, 15.2 µM (inactive); with TK-10, 23.1 µM (inactive); in the assay on SK-OV-3, 18.6 µM (inactive); with NCI-H226 it was 10.6 µM (inactive). Also, the GI50 in the assay with CCRF-CEM was 13.3 µM (inactive); in the assay on NCI-H460, 31.8 µM (inactive); in the assay with LOX IMVI, 8.34 µM (inactive); with IGROV-1, 14.5 µM (inactive); with NCI/ADR-RES it was 15.2 µM (inactive); in the assay with M14 it was 29.3 µM (inactive). The GI50 with MOLT-4 was 27.5 µM (inactive); with EKVX it was 21.5 µM (inactive); in the assay with T47D, 28.2 µM (inactive); in the assay on RPMI-8226, 16.8 µM (inactive); in the assay with KM12 it was 18.4 µM (inactive); with SNB-75 it was 22 µM (inactive). Also, the GI50 in the assay with OVCAR-5 was 28.6 µM (inactive).
